# Measured values as given in patent US10851092B2, “Pyridine compound” (Daiichi Sankyo Company, Limited, priority 2016, dated 2020).
# Like-named read-outs stand apart in the source and are kept apart here.
# Legend:
# [1] = biological target: RET-V804L (Homo sapiens (Human), UniProt P07949, V804L); assay: Evaluation of RET kinase inhibiting activity (cell system), Ba/F3 cells overexpressing RET (V804L) mutant; format: cell-based; details: Ba/F3, compound 2 hours
# Experimental: (§1) Thereafter, 1 mL of Cell Lysis Buffer (Cell signaling technology, #9803), a single tablet of Phosphatase inhibitor (Roche, #04906837001), and a single tablet of Protease inhibitor (Roche, #0469312400) were added to 9 mL of MilliQ, and 20 ul of the obtained mixture was then added to each well. The mixture thus obtained was placed on ice for 20 minutes, so that the cells were lysed. A 5-ul aliquot was taken from the cell lysate, and thereafter, 64 nl of Myc antibody (Cell signaling technology, #3946) and Streptavidin Donor beads in an equal amount of 102 nl of P-Tyr-100 Acceptor beads included in the Alpha Screen Phosphotyrosine (P-Tyr-100) assay kit (Perkin Elmer, #6760620C) were added to the aliquot in accordance with the instruction manual included with the aforementioned assay kit. The obtained mixture was reacted at room temperature overnight, and a RET kinase inhibiting activity rate was then measured using Envision.
# [2] = biological target: RET-Gatekeeper mutation (V804L) recombinant protein (Homo sapiens (Human), UniProt P07949, V804L); assay: Evaluation of RET kinase inhibiting activity (cell-free system), gatekeeper mutant; format: biochemical
# Experimental: (§2) 19 uL of the RET kinase solution was added to each of lines A to P of a 384-well plate, and thereafter, the test compound at each concentration was added to lines C to N, and further, 1 uL of dimethyl sulfoxide (hereinafter referred to as DMSO) was added to each of lines A, B, O and P. Thereafter, the obtained mixtures were each preincubated at room temperature for 20 minutes. Furthermore, a substrate solution A containing ATP (final concentration: 1 mM) and a substrate solution B containing no ATP, both in addition to a reaction buffer and FL-Peptide 22 (PerkinElmer, #760366, final concentration: 1.5 uM) were produced. The substrate solution A was added in an amount of 5 uL to lines B to 0, whereas the substrate solution B was added in an amount of 5 uL to lines A and P. The obtained mixtures were each incubated at 28° C. for 45 minutes. A reaction termination solution (100 mM HEPES (pH 7.4), 0.015% Briji-35, 40 mM EDTA, and 0.1% Coating Reagent 3) was added in an amount of 40 ul to the reaction mixture, so as to terminate the reaction.
# (§3) Using EZ Reader II (Perkin Elmer), a substrate peptide was separated from a phosphorylated peptide in the reaction solution, and the product ratio (P/(P+S)) calculated from the peak (S) of the substrate peptide and the peak (P) of the phosphorylated peptide was used for evaluation. The inhibition of the test compound having each concentration was obtained by the following formula (automatically calculated using the software of EZ Reader II System). Inhibition (%)=100×(1−Ci/Co) (a) Ci: Conversion rate of a reaction of a test compound with substrate solution A−conversion rate of a reaction of DMSO with substrate solution B Co: Conversion rate of a reaction of DMSO with substrate solution A−conversion rate of a reaction of DMSO with substrate solution B
# (§4) Based on the inhibition rates of the test compound at 12 different concentrations according to the formula (a), a 4-parameter logistic regression curve was drawn. At this time, the 4-parameter logistic regression equation is expressed as follows. Inhibition (%)=Bottom+(Top−Bottom)/(1+(X/IC50)^^slope) (b) Top: Upward asymptote Slope: Slope parameter IC50: Value X of (Top+Bottom)/2 Bottom: Downward asymptote X: Concentration of test compound
# (§5) First, any given initial values are inputted into Top, Slope, IC50, Bottom (Top=100, Slope=−1, IC50=approx. IC50, and Bottom=0), so that a regression curve was drawn. Subsequently, a least-squares method was executed to the sum of squares of a difference between the measured value and the estimated value obtained from formula (b) to calculate the coefficient of the 4-parameter logistic regression equation, so as to calculate IC50.
# [3] = biological target: RET-wild type (Homo sapiens (Human), UniProt P07949); assay: Evaluation of RET kinase inhibiting activity (cell system), Ba/F3 cells overexpressing Myc tagged RET; format: cell-based; details: Ba/F3, compound 2 hours, read-out: RET-wild type IC50
# Experimental: as §1
# [4] = biological target: RET recombinant protein (RET-wild type) (Homo sapiens (Human), UniProt P07949); assay: Evaluation of RET kinase inhibiting activity (cell-free system), mobility shift assay; format: biochemical
# Experimental: as §2, §3, §4, §5
# [5] = system: phosphorylated RET (ETV-RET) in Ba/F3-RET tumors; assay: One shot PKPD analysis, Ba/F3-RET tumors; format: in vivo, mice
# Experimental: Murine pro-B cells, Ba/F3, expressing fusion protein of ets variant 6 (ETV)-RET and ETV-RET-V804L were constructed by Daiichi Sankyo RD Novare Co., Ltd., and cultivated in RPM11640 medium (Thermo Fisher Scientific K.K.) supplemented with 10% (v/v) heat-inactivated fetal bovine serum (FBS, GE Healthcare) and 1.5 µg/mL puromycin in a CO2 incubator that was set at 37° C. with a 5% CO2 atmosphere. The cells were suspended in DPBS and inoculated subcutaneously into mice at 1.0×10^7 cells per mouse. After the tumor had reached a size of 100 to 200 mm^3, the mice were randomized based on tumor diameter and the test compounds (10 mg/kg, Compound 229 or Example 3) which were dissolved in 1% (w/v) hydroxypropyl methylcellulose solution were administrated orally. Control group was administrated with 1% (w/v) hydroxypropyl methylcellulose solution. […] Protein concentration of tumor lysate was quantified by colorimetric reagent (Thermo Fisher Scientific K.K.) and all were diluted to the same concentration by lysis buffer. […] The chemiluminescence reaction of HRP and the substrate (Pierce ECL Plus Western Blotting Substrate, Cat. No. 32132, Thermo Fisher Scientific K.K.) was detected by an image scanner Typhoon 9400 (GE Healthcare). Signal intensities fo phosphorylated RET (pRET) and RET were quantified and calculated as following methods. […]
# RET-Gatekeeper mutation (V804L) recombinant protein, sequence (P07949 29-1114 V804L): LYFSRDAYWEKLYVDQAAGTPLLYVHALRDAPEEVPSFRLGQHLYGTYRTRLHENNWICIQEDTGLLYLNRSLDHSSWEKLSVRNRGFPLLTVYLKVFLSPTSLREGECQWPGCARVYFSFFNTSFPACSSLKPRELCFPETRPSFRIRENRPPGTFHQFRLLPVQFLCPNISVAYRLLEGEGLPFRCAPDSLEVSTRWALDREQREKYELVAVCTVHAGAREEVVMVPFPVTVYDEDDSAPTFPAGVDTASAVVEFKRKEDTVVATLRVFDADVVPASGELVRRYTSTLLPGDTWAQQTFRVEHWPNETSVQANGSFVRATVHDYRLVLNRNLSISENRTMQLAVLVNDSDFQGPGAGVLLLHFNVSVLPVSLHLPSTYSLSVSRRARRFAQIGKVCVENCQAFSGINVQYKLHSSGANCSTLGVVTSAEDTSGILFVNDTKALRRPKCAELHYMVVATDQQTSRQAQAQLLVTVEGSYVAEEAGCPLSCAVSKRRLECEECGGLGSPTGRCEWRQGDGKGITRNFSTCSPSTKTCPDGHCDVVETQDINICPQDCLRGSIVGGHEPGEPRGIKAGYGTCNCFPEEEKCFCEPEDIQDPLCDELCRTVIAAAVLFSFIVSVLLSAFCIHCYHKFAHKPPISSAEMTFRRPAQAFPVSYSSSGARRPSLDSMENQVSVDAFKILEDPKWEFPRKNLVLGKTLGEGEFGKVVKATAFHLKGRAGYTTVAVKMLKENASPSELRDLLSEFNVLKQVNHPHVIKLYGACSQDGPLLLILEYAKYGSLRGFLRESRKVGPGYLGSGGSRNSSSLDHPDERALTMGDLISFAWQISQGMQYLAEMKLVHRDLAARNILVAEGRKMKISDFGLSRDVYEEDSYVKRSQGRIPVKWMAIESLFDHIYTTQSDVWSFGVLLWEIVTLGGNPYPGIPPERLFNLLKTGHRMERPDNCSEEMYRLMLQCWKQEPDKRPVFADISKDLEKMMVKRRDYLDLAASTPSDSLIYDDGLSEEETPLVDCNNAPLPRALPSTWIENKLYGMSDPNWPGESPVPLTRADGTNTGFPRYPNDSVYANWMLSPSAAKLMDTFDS
# RET recombinant protein (RET-wild type), sequence (P07949 29-1114): as the sequence (P07949 29-1114 V804L) above, with L776V counted along it
# RET-V804L, sequence (P07949 29-1114 V804L): as the sequence (P07949 29-1114 V804L) above
# RET-wild type, sequence (P07949 29-1114): as the sequence (P07949 29-1114 V804L) above, with L776V counted along it
smiles,measurement,setting,value
"COc1cc2cc(-c3ccc(CC(=O)Nc4cc(C(C)(C)C(F)(F)F)no4)cn3)cnc2cc1OC [Example 3, 2-[6-(6,7-Dimethoxyquinolin-3-yl)pyridin-3-yl]-N-[3-(1,1,1-trifluoro-2-methylpropan-2-yl)-1,2-oxazol-5-yl]acetamide]",IC50,[1],15 nM
same,IC50,"[2]; cell-free system, ATP 1 mM, read-out: RET-V804L IC50",6.3 nM
same,IC50,"[2]; non-cell system, read-out: Biochemical assay (non-cell system) IC50 (nM) RET-V804L",6.3 nM
same,IC50,[3],4 nM
same,IC50,"[4]; cell-free system, ATP 1 mM, read-out: RET-wild type IC50",4.6 nM
same,IC50,"[4]; non-cell system, read-out: Biochemical assay (non-cell system) IC50 (nM) RET-WT",4.6 nM
same,inhibition of pRET in Ba/F3-RET tumors,[5]; 10 mg/kg oral,clearly inhibited
same,Relative phosphorylation of RET (%) in Ba/F3-RET tumors,"[5]; Dose: 10 mg/kg oral, six hours after administration, relative to vehicle",6%
